This note sets out measurements from patent US8680300B2, “Dioxanes derived from regrouping carbohydrates and C-glycosides, process for obtaining same and uses thereof” (Universidad de la Laguna, priority 2009, dated 2014).

For series [1], the system named is MCF7 breast cancer cells. In words: Cell proliferation trial, cell line MCF7. The series is classed as cell-based, human. The method, then: (§1) Two stable cell lines of different origins were used for these trials: neural cell line HT22 from mouse hippocampus and line MCF7 from human breast cancer.
(§2) Both cell lines were grown in a DMEM culture medium supplemented with 10% foetal bovine serum and antibiotics at 37° C. with a 5% CO2 atmosphere. 35-mm Petri dishes were used as growth media. When the cultures reached approximately 80% confluence they were exposed to the different compounds of the study for 24 hours at 37° C., at concentrations of 0.1, 1 and 5 μM. The compounds were previously diluted in DMSO.
(§3) For the cytotoxicity trials, after 24 hours of treatment with the compounds, the cells were treated with trypsin, resuspending them in DMEM and counting them. On one hand, an aliquot of 100 μl was preserved for the total count of the cells present in Neubauer chambers. On the other, the rest of the cell volume (approximately 1 ml) was processed for dyeing with trypan blue to visualise those cells susceptible to dyeing (non-viable cells) against intact cells (viable cells). To this end, the ViCell (Beckman Coulter) quantifier was used.

In series [2] the test system is neural cell line HT22. In words: Cell proliferation trial, cell line HT22. The series is classed as cell-based, mouse. The settings on record: for antiproliferative effect (conclusion, in words): HT22; for decrease in normal proliferation: HT22, 24 hours, versus medium (DMSO at 0.01%), concentration not given. The method, then: as §1, §2, §3
Series [3] relates to MCF7 breast cancer cells. Description: Cytotoxicity trial, trypan blue dye, cell line MCF7. The series is classed as cell-based, human. The settings on record: for cytotoxicity (conclusion, in words): MCF7, concentrations of 1 and 5 μM. The procedure:
as §1, §2, §3

The subject of series [4] is cell line HT22. Description: Visualisation of HT22 cultures after exposure to the compounds. The conditions noted are these: HT22, 5 μM, after 4-5 hours of treatment. The series is classed as cell-based, mouse. The method, then: as §1
(§4) Both cell lines were grown in a DMEM culture medium supplemented with 10% foetal bovine serum and antibiotics at 37° C. with a 5% CO2 atmosphere. 35-mm Petri dishes were used as growth media. […] The compounds were previously diluted in DMSO.
(§5) (The control cultures of FIG. 3 were compared to the cultures of HT22 and MCF7 exposed to the compounds—FIGS. 4 and 5 respectively—).

For series [5], the system named is cell line MCF7. In words: Visualisation of MCF7 cultures after exposure to the compounds. In kind it is cell-based, human. The settings on record: MCF7, 5 μM, after 4-5 hours of treatment. The method, then:
as §1, §4, §5

The subject of series [6] is neural cell line HT22. Description: Cytotoxicity trial, trypan blue dye, cell line HT22. In kind it is cell-based, mouse. The conditions noted are these: HT22, concentrations of 1 and 5 μM. The method, then:
as §1, §2, §3

Some results are limits rather than exact numbers.

With `CO[C@H]1O[C@@H]2OC[C@@H](OC)[C@@H]2O[C@@H]1OC` [Compound 8], in series [1] (MCF7), the “antiproliferative effect (conclusion, in words)” value (from here on “antiproliferative effect”) is listed as “antiproliferative effects”. In addition, in series [1] (MCF7, 24 hours, versus medium (DMSO at 0.01%)), the “proliferation inhibition (in words)” value was “partial proliferation inhibition”. Moreover, in series [2], the “antiproliferative effect” value is given as “antiproliferative effects” and the “decrease in normal proliferation” value was “approximately 50%”.
Take `CO[C@@H]1O[C@@H]2OC[C@@H](OC)[C@@H]2O[C@@H]1OC` [Compound 9]: in series [3] (MCF7, 24 hours, normalised to medium (DMSO at 0.01%), concentration not given), the “toxicity (percentage of cell death, trypan blue)” value is over 65%. Further, the “toxicity (in words)” value in series [3] (MCF7, 24 hours, concentration not given) was “high toxicity”. Also, in series [2], the “antiproliferative effect” value is reported as “antiproliferative effects” and the “decrease in normal proliferation” value is listed as “approximately 50%”.
As to `CO[C@@H]1O[C@@H](OC(C)=O)[C@H]([C@@H](COC(C)=O)OC)O[C@@H]1OC` [Compound 7], the “cytotoxicity (conclusion, in words)” value in series [3] and in series [6] was “highly cytotoxic” each time. For the same compound, the “cytotoxic effect on visualisation of cultures” value in series [4] and in series [5] was “significant cytotoxic effect” each time.
On to `CO[C@H]1O[C@@H](OC(C)=O)[C@H]([C@@H](COC(C)=O)OC)O[C@@H]1OC` [Compound 6], for which the “cytotoxicity (conclusion, in words)” value in series [3] and in series [6] was “highly cytotoxic” throughout. Besides, the “cytotoxic effect on visualisation of cultures” value in series [4] and in series [5] was “significant cytotoxic effect” each time.
